Assay results: ChEMBL document CHEMBL1132682, “High affinity retinoic acid receptor antagonists: analogs of AGN 193109” (Bioorg Med Chem Lett, 1999)

Columns and labels:
[1] = target: T1, Retinoic acid receptor alpha (Homo sapiens, UniProt P10276); assay: Ability to displace 3[H](all-E)-retinoic acid (5 nM) from alpha retinoic acid receptor (alpha RAR) using transactivation assay
T1 sequence (P10276 whole entry): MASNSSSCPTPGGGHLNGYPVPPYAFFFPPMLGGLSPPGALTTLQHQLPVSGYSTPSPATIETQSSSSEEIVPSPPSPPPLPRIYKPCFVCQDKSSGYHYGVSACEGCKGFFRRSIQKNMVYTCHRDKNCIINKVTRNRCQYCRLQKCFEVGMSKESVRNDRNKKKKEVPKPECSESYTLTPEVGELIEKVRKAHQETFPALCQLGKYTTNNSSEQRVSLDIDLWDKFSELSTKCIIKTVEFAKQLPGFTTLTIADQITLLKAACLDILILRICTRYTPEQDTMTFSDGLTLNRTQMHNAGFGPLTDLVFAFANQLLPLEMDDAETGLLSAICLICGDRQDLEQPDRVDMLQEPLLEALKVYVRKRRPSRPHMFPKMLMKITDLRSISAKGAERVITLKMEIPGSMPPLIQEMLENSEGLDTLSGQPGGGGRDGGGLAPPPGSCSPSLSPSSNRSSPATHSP

[2] = target: T2, Retinoic acid receptor gamma (Homo sapiens, UniProt P13631); assay: Ability to displace 3[H](all-E)-retinoic acid (5 nM) from Retinoic acid receptor gamma using transactivation assay
T2 sequence (P13631 whole entry): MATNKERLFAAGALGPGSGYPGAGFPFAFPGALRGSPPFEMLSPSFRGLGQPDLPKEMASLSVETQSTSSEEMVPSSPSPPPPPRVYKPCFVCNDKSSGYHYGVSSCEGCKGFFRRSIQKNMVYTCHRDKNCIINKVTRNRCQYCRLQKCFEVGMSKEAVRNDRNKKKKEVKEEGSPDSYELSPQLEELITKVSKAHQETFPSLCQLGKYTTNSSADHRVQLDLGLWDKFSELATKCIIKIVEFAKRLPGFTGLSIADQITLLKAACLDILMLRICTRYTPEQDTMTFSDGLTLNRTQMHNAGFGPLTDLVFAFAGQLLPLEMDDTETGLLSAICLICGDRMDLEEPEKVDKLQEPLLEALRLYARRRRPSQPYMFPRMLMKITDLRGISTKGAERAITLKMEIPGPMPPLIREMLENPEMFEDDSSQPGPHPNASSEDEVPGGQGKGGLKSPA

[3] = target: T3, Retinoic acid receptor beta (Homo sapiens, UniProt P10826); assay: Ability to displace 3[H](all-E)-retinoic acid (5 nM) from beta retinoic acid receptor (beta RAR) using transactivation assay
T3 sequence (P10826 whole entry): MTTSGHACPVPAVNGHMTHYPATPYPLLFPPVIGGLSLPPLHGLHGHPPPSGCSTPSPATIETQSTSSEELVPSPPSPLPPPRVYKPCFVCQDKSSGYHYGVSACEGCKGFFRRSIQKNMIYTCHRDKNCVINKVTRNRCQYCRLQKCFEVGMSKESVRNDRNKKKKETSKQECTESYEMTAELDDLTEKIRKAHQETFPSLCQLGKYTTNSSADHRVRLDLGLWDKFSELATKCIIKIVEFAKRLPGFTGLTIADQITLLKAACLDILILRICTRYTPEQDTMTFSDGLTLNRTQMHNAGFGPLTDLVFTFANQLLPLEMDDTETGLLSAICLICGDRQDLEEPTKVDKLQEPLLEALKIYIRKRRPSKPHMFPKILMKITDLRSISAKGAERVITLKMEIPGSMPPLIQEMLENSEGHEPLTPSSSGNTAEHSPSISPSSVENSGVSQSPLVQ

Row | Kd [1] [nM] | Kd [2] [nM] | Kd [3] [nM] | SMILES
1 | 919 | 254 | 162 | CC1(C)CC=C(c2cccc(O)c2)c2cc(C#Cc3ccc(C(=O)O)cc3)ccc21
2 | 103 | 35 | 29 | Cc1ccccc1C1=CCC(C)(C)c2ccc(C#Cc3ccc(C(=O)O)cc3)cc21
3 | 147 | 42 | 33 | CC1(C)CC=C(c2ccccc2)c2cc(C#Cc3ccc(C(=O)O)cc3)ccc21
4 | 58 | 27 | 18 | CC1(C)CC=C(c2ccc(Cl)cc2)c2cc(C#Cc3ccc(C(=O)O)cc3)ccc21
5 | 16 | 7 | 7 | Cc1ccc(C2=CCC(C)(C)c3ccc(C#Cc4ccc(C(=O)O)cc4)cc32)cc1
6 | 276 | 67 | 51 | Cc1cccc(C2=CCC(C)(C)c3ccc(C#Cc4ccc(C(=O)O)cc4)cc32)c1

Continued, compound first:

Row | SMILES | Kd [1] [nM] | Kd [2] [nM] | Kd [3] [nM]
7 | CC(C)c1ccc(C2=CCC(C)(C)c3ccc(C#Cc4ccc(C(=O)O)cc4)cc32)cc1 | 90 | 171 | 11
8 | CC1(C)CC=C(c2ccc(F)cc2)c2cc(C#Cc3ccc(C(=O)O)cc3)ccc21 | 85 | 82 | 52
9 | CC1(C)CC=C(c2ccc(C#N)cc2)c2cc(C#Cc3ccc(C(=O)O)cc3)ccc21 | 38 | 51 | 14
10 | Cc1cc(C)cc(C2=CCC(C)(C)c3ccc(C#Cc4ccc(C(=O)O)cc4)cc32)c1 | 1050 | 408 | 274
11 | COc1ccc(C2=CCC(C)(C)c3ccc(C#Cc4ccc(C(=O)O)cc4)cc32)cc1 | 60 | 36 | 16
12 | CC1(C)CC=C(c2ccc(O)cc2)c2cc(C#Cc3ccc(C(=O)O)cc3)ccc21 | 229 | 98 | 72
13 | CC1(C)CC=C(c2ccc(C(F)(F)F)cc2)c2cc(C#Cc3ccc(C(=O)O)cc3)ccc21 | 44 | 57 | 29
14 | CC(C)(C)c1ccc(C2=CCC(C)(C)c3ccc(C#Cc4ccc(C(=O)O)cc4)cc32)cc1 | 178 | 94 | 21
15 | CCc1ccc(C2=CCC(C)(C)c3ccc(C#Cc4ccc(C(=O)O)cc4)cc32)cc1 | 40 | 19 | 10
